Laboratory results: US4774330A, “Cephalosporin intermediates” (Hoffmann-La Roche Inc., priority 1980, dated 1988)
Where a name gives a salt, the structure may show the parent alone. Read-outs that look alike come from different tables or passages of the source.

Legend:
[1] = test system: Serratia marcescens; test: s.c. treatment of mice before i.p. infection, Serratia marcescens; assay type: in vivo; settings: sc, 5 hours before i.p. infection
Procedure: (§1) The long retention of the products in accordance with the invention in the organism is also evident after the s.c. treatment of mice with product A or C 5 hours before a i.p. infection with the microorganism to be tested, the following Ed50 values being ascertained: […]

[2] = test system: Escherichia coli; test: MIC in vitro, Escherichia coli; assay type: cell-based
Procedure: (§2) The following products were tested:
(§3) The following results relate to the minimum inhibitory concentration (MIC) in vitro (μg/ml): […]

[3] = test system: Streptococcus viridans; test: MIC in vitro, Streptococcus viridans; assay type: cell-based
Procedure: as §2, §3

[4] = test system: Pseudomonas aeruginosa; test: MIC in vitro, Pseudomonas aeruginosa; assay type: cell-based
Procedure: as §2, §3

[5] = test system: Klebsiella pneumoniae; test: MIC in vitro, Klebsiella pneumoniae; assay type: cell-based
Procedure: as §2, §3

[6] = test system: Haemophilus influenzae; test: MIC in vitro, Haemophilus influenzae; assay type: cell-based
Procedure: as §2, §3

[7] = half-life in vivo after i.v. administration; settings: rat, plasma, iv; 20 mg i.v., rats
From the text: The compounds of formula I as well as the corresponding readily hydrolyzable esters, readily hydrolyzable ethers and salts and the hydrates of same have antibiotic, especially bactericidal, activity.

[8] = test system: Streptococcus pyogenes; test: MIC in vitro, Streptococcus pyogenes; assay type: cell-based
Procedure: as §2, §3

[9] = test system: Proteus rettgeri; test: MIC in vitro, Proteus rettgeri; assay type: cell-based; settings: Providencia rettgeri
Procedure: as §2, §3

[10] = test system: Streptococcus pneumoniae; test: MIC in vitro, Streptococcus pneumoniae; assay type: cell-based
Procedure: as §2, §3

[11] = test system: Staphylococcus epidermidis; test: MIC in vitro, Staphylococcus epidermidis; assay type: cell-based
Procedure: as §2, §3

[12] = test system: Serratia marcescens; test: MIC in vitro, Serratia marcescens; assay type: cell-based
Procedure: as §2, §3

[13] = test system: Proteus vulgaris; test: MIC in vitro, Proteus vulgaris; assay type: cell-based
Procedure: as §2, §3

[14] = test system: Proteus mirabilis; test: MIC in vitro, Proteus mirabilis; assay type: cell-based
Procedure: as §2, §3

[15] = test system: Neisseria gonorrhoeae; test: MIC in vitro, Neisseria gonorrhoeae; assay type: cell-based
Procedure: as §2, §3

[16] = test system: Citrobacter freundii; test: MIC in vitro, Citrobacter freundii; assay type: cell-based
Procedure: as §2, §3

[17] = test system: Streptococcus faecalis; test: MIC in vitro, Streptococcus faecalis; assay type: cell-based; settings: Enterococcus faecalis
Procedure: as §2, §3

[18] = test system: Streptococcus pyogenes; test: s.c. treatment of mice before i.p. infection, Streptococcus pyogenes; assay type: in vivo; settings: sc, 5 hours before i.p. infection
Procedure: as §1

[19] = test system: Enterobacter aerogenes; test: MIC in vitro, Enterobacter aerogenes; assay type: cell-based; settings: Klebsiella aerogenes
Procedure: as §2, §3

[20] = toxicity, 24 hours values; assay type: in vivo; settings: 24 hours value; for MTD at 24 h: in vivo, read-out: Tolerated dosage
Procedure: The compounds in accordance with the invention are non-toxic, as will be evident from the following data for the 24 hours values of products A and B: […]

[21] = test system: Enterobacter cloacae; test: MIC in vitro, Enterobacter cloacae; assay type: cell-based
Procedure: as §2, §3

[22] = test system: Proteus morganii; test: MIC in vitro, Proteus morganii; assay type: cell-based; settings: Morganella morganii
Procedure: as §2, §3

[23] = test system: Proteus inconstans; test: MIC in vitro, Proteus inconstans; assay type: cell-based; settings: Providencia alcalifaciens
Procedure: as §2, §3

[24] = test system: Staphylococcus aureus; test: MIC in vitro, Staphylococcus aureus; assay type: cell-based
Procedure: as §2, §3

[25] = test system: Neisseria meningitidis; test: MIC in vitro, Neisseria meningitidis; assay type: cell-based
Procedure: as §2, §3

[26] = test system: Escherichia coli; test: s.c. treatment of mice before i.p. infection, Escherichia coli; assay type: in vivo; settings: sc, administered 24 hours before the infection
Procedure: The long retention of the products in accordance with the invention in the organism is also evident after the s.c. treatment of mice with product A or C 5 hours before a i.p. infection with the microorganism to be tested, the following Ed50 values being ascertained: | *Administered 24 hours before the infection.

Cn1nc(O)c(=O)nc1SCC1=C(C(=O)O)N2C(=O)[C@@H](NC(=O)/C(=N\O)c3csc(N)n3)[C@H]2SC1 [Product A, (6R,7R)-7-[2-(2-Amino-4-thiazolyl)-2-(Z-hydroxyimino)acetamido]-3-/[(2,5-dihydro-6-hydroxy-2-methyl-5-oxo-as-triazin-3-yl)thio]methyl/-8-oxo-5-thia-1-azabicyclo[4.2.0]oct-2-ene-2-carboxylic acid disodium salt]
ED50 [1]: 0.89 mg/kg | MIC ([2]; strain 1): 1.2 µg/mL | MIC ([2]; strain 2): 1.2 µg/mL | MIC ([2]; strain 3): 2.5 µg/mL | MIC ([2]; strain 4): 0.31 µg/mL | MIC ([2]; strain 5): 0.4 µg/mL | MIC ([2]; strain 6): 0.2 µg/mL | MIC ([2]; strain 7): 0.025 µg/mL | MIC ([2]; strain 8): 0.05 µg/mL | MIC [3]: 1.6 µg/mL | MIC ([4]; strain 1): > 80 µg/mL | MIC ([4]; strain 2): > 80 µg/mL | MIC ([4]; strain 3): 40 µg/mL | MIC ([4]; strain 4): 80 µg/mL | MIC ([4]; strain 5): > 80 µg/mL | MIC ([4]; strain 6): 10 µg/mL | MIC ([4]; strain 7): 5 µg/mL | MIC ([4]; strain 8): 20 µg/mL | MIC ([4]; strain 9): > 80 µg/mL | MIC ([4]; strain 10): 10 µg/mL | MIC ([4]; strain 11): 5 µg/mL | MIC ([4]; strain 12): > 80 µg/mL | MIC ([4]; strain 13): 80 µg/mL | MIC ([4]; strain 14): > 80 µg/mL | MIC ([4]; strain 15): 80 µg/mL | MIC ([4]; strain 16): > 80 µg/mL | MIC ([4]; strain 17): > 80 µg/mL | MIC ([5]; strain 1): 0.02 µg/mL | MIC ([5]; strain 2): 0.1 µg/mL | MIC ([5]; strain 3): 0.025 µg/mL | MIC ([5]; strain 4): 0.05 µg/mL | MIC ([6]; strain 1): 0.63 µg/mL | MIC ([6]; strain 2): 0.04 µg/mL | MIC ([6]; strain 3): 0.04 µg/mL | MIC ([6]; strain 4): 0.04 µg/mL | MIC ([6]; strain 5): 0.04 µg/mL | MIC ([6]; strain 6): 0.02 µg/mL | MIC ([6]; strain 7): 0.04 µg/mL | half-life [7]: 2.33 h | MIC ([8]; strain 1): 0.1 µg/mL | MIC ([8]; strain 2): 0.05 µg/mL | MIC ([9]; strain 1): 0.63 µg/mL | MIC ([9]; strain 2): 0.05 µg/mL | MIC [10]: 0.4 µg/mL | MIC [11]: 1.6 µg/mL | MIC ([12]; strain 1): 0.16 µg/mL | MIC ([12]; strain 2): 0.31 µg/mL | MIC ([12]; strain 3): 0.31 µg/mL | MIC ([12]; strain 4): 0.63 µg/mL | MIC ([12]; strain 5): 0.31 µg/mL | MIC ([12]; strain 6): 0.31 µg/mL | MIC ([12]; strain 7): 0.31 µg/mL | MIC ([12]; strain 8): 0.31 µg/mL | MIC ([12]; strain 9): 0.16 µg/mL | MIC ([12]; strain 10): 0.8 µg/mL | MIC ([12]; strain 11): 6.3 µg/mL | MIC ([12]; strain 12): 0.1 µg/mL | MIC ([13]; strain 1): 0.31 µg/mL | MIC ([13]; strain 2): 0.31 µg/mL | MIC ([13]; strain 3): 0.63 µg/mL | MIC ([13]; strain 4): 3.1 µg/mL | MIC ([13]; strain 5): 0.1 µg/mL | MIC ([13]; strain 6): 0.05 µg/mL | MIC ([14]; strain 1): 0.02 µg/mL | MIC ([14]; strain 2): 0.025 µg/mL | MIC ([14]; strain 3): 0.05 µg/mL | MIC ([14]; strain 4): 0.025 µg/mL | MIC ([15]; strain 1): 0.0012 µg/mL | MIC ([15]; strain 2): 0.0012 µg/mL | MIC ([15]; strain 3): 0.02 µg/mL | MIC ([15]; strain 4): 0.01 µg/mL | MIC ([15]; strain 5): 0.04 µg/mL | MIC ([15]; strain 6): 0.0006 µg/mL | MIC ([16]; strain 1): 80 µg/mL | MIC ([16]; strain 2): 6.3 µg/mL | MIC ([16]; strain 3): 0.2 µg/mL | MIC ([17]; strain 1): 25 µg/mL | MIC ([17]; strain 2): > 25 µg/mL | ED50 [18]: 0.15 mg/kg | MIC ([19]; strain 1): 0.1 µg/mL | MIC ([19]; strain 2): 0.8 µg/mL | MTD at 24 h ([20]; intravenous): 500 mg/kg | MTD at 24 h ([20]; oral): 5000 mg/kg | Lethal dosage ([20]; intravenous): 1000 mg/kg | Lethal dosage ([20]; oral): > 5000 mg/kg | Lethal dosage ([20]; subcutaneous): > 4000 mg/kg | MIC ([21]; strain 1): 20 µg/mL | MIC ([21]; strain 2): > 80 µg/mL | MIC ([21]; strain 3): > 25 µg/mL | MIC ([21]; strain 4): 12.5 µg/mL | MIC ([22]; strain 1): ≤ 0.04 µg/mL | MIC ([22]; strain 2): 0.05 µg/mL | MIC ([23]; strain 1): 0.08 µg/mL | MIC ([23]; strain 2): 0.01 µg/mL | MIC ([23]; strain 3): ≤ 0.025 µg/mL | MIC ([24]; strain 1): 0.62 µg/mL | MIC ([24]; strain 2: β-lactamase producing): 1.2 µg/mL | MIC ([24]; strain 3): 1.6 µg/mL | MIC ([24]; strain 4): 1.6 µg/mL | MIC ([24]; strain 5): 1.6 µg/mL | MIC ([24]; strain 6): 3.1 µg/mL | MIC ([25]; strain 1): 0.0025 µg/mL | MIC ([25]; strain 2): 0.0025 µg/mL | MIC ([25]; strain 3): 0.0025 µg/mL | MIC ([25]; strain 4): 0.0012 µg/mL

Cn1nc(OCOC(=O)C(C)(C)C)c(=O)nc1SCC1=C(C(=O)O)N2C(=O)[C@@H](NC(=O)/C(=N\O)c3csc(N)n3)[C@H]2SC1 [Product B, (6R,7R)-7-[2-(2-Amino-4-thiazolyl)-2-(Z-hydroxyimino)acetamindo]-3-[[[2,5-dihydro-2-methyl-5-oxo-6-[(pivaloyloxy)methoxy]-as-triazin-3-yl]thio]methyl]-8-oxo-5-thia-1-azabicyclo[4.2.0]oct-2-ene-2-carboxylic acid sodium salt]
MIC ([2]; strain 5): 0.4 µg/mL | MIC ([2]; strain 6): 0.2 µg/mL | MIC ([2]; strain 7): 0.05 µg/mL | MIC ([2]; strain 8): 0.8 µg/mL | MIC [3]: 0.4 µg/mL | MIC ([5]; strain 2): 1.6 µg/mL | MIC ([5]; strain 3): 0.4 µg/mL | MIC ([5]; strain 4): 0.8 µg/mL | MIC ([8]; strain 1): 0.025 µg/mL | MIC ([8]; strain 2): 0.025 µg/mL | MIC ([9]; strain 2): 0.4 µg/mL | MIC [10]: 0.1 µg/mL | MIC [11]: 0.4 µg/mL | MIC ([12]; strain 10): 6.3 µg/mL | MIC ([12]; strain 11): 12.5 µg/mL | MIC ([12]; strain 12): 1.6 µg/mL | MIC ([13]; strain 4): 12.5 µg/mL | MIC ([13]; strain 5): 0.8 µg/mL | MIC ([13]; strain 6): 0.8 µg/mL | MIC ([14]; strain 2): 0.4 µg/mL | MIC ([14]; strain 3): 1.6 µg/mL | MIC ([14]; strain 4): 0.8 µg/mL | MIC ([16]; strain 2): 3.1 µg/mL | MIC ([16]; strain 3): 0.4 µg/mL | MIC ([17]; strain 1): 6.3 µg/mL | MIC ([17]; strain 2): > 25 µg/mL | MIC ([19]; strain 1): 0.2 µg/mL | MIC ([19]; strain 2): 1.6 µg/mL | MTD at 24 h ([20]; sc, subcutaneous): > 4000 mg/kg | MTD at 24 h ([20]; oral): > 5000 mg/kg | MIC ([21]; strain 3): > 25 µg/mL | MIC ([21]; strain 4): 6.3 µg/mL | MIC ([22]; strain 2): 1.6 µg/mL | MIC ([23]; strain 2): 0.2 µg/mL | MIC ([23]; strain 3): ≤ 0.025 µg/mL | MIC ([24]; strain 3): 0.4 µg/mL | MIC ([24]; strain 4): 0.8 µg/mL | MIC ([24]; strain 5): 0.4 µg/mL | MIC ([24]; strain 6): 0.8 µg/mL

Cn1nc(OCOC(=O)C(C)(C)C)c(=O)nc1SCC1=C(C(=O)OCOC(=O)C(C)(C)C)N2C(=O)[C@@H](NC(=O)/C(=N\O)c3csc(N)n3)[C@H]2SC1 [Product C, Methylene-(6R,7R)-7-[2-(2-amino-4-thiazolyl)-2-(Z-hydroxyimino)acetamido]-3-[[[2,5-dihydro-2-methyl-5-oxo-6-[(pivaloyloxy)methoxy]-as-triazin-3-yl]thio]methyl]-8-oxo-5-thia-1-azabicyclo[4.2.0]-oct-2-ene-2-carboxylate pivalate]
ED50 [26]: 5.6 mg/kg | ED50 [18]: 0.45 mg/kg
